According to ChEMBL document CHEMBL5352412, “Discovery of 1,2-diphenylethene derivatives as human DNA topoisomerase II catalytic inhibitors and antitumor agents” (Eur J Med Chem, 2022):

How the values were obtained:
[1] = biological target: T1, DNA topoisomerase 2-alpha (Homo sapiens, UniProt P11388); assay: Inhibition of human topoisomerase 2-alpha assessed as reduction in relaxation of pBR322 DNA at 100 uM measured after 30 mins by agarose gel electrophoresis method relative to control
HepG2 = assay: Antiproliferative activity against human HepG2 cells incubated for 72 hrs by CCK8 assay; type: functional, cell-based; conditions: Homo sapiens, HepG2, 72 h
[2] = biological target: T1, DNA topoisomerase 2-alpha; assay: Inhibition of human topoisomerase 2-alpha assessed as reduction in relaxation of pBR322 DNA at 25 uM measured after 30 mins by agarose gel electrophoresis method relative to control
MDA-MB-231 = assay: Antiproliferative activity against human MDA-MB-231 cells incubated for 72 hrs by CCK8 assay; type: functional, cell-based; conditions: Homo sapiens, MDA-MB-231, 72 h
[3] = biological target: T1, DNA topoisomerase 2-alpha; assay: Inhibition of human topoisomerase 2-alpha assessed as reduction in relaxation of pBR322 DNA measured after 30 mins by agarose gel electrophoresis method

T1 sequence (P11388 whole entry): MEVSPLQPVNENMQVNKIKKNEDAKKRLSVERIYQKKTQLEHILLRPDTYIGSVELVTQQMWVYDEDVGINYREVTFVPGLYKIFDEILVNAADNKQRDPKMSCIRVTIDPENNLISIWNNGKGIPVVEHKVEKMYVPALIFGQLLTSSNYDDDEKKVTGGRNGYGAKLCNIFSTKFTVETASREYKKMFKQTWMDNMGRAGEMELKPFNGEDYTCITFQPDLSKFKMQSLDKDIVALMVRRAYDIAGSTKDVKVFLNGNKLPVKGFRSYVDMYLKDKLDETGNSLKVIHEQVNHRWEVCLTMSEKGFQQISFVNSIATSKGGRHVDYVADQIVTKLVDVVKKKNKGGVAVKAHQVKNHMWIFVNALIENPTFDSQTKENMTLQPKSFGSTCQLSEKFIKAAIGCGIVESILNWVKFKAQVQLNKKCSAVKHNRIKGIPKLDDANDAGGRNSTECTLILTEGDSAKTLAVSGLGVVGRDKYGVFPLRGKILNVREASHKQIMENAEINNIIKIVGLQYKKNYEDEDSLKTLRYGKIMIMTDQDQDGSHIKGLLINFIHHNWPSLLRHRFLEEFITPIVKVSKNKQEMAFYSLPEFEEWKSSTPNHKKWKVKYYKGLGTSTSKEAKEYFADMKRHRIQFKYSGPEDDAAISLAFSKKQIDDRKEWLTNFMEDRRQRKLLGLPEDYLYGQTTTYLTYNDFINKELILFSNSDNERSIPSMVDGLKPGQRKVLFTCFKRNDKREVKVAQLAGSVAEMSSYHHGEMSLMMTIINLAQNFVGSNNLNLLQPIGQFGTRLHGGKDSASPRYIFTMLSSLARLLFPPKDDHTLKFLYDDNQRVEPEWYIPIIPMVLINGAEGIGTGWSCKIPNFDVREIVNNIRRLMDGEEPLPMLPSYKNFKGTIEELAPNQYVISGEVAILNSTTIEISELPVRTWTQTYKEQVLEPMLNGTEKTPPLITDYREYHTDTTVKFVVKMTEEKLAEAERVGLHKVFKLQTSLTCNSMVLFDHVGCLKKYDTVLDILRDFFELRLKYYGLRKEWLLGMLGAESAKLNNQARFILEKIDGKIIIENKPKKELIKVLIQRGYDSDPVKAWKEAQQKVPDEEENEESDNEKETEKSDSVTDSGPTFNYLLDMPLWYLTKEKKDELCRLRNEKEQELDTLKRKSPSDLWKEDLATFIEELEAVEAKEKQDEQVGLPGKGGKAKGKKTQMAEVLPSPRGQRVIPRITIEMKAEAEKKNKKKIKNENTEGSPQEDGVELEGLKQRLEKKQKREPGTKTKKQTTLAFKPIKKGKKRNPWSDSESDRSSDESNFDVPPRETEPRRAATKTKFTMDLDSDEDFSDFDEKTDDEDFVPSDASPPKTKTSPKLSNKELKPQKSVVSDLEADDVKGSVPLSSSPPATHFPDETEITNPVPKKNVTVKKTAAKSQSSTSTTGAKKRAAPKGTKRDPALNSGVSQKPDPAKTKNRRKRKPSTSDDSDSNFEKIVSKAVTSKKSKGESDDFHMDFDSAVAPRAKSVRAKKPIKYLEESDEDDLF

SMILES: COc1ccc2cc(-c3ccc(NC(=O)/C=C/c4ccccc4)cc3)ccc2c1
- inhibition [1]: 0.1%

SMILES: O=C(/C=C/c1ccccc1)Nc1ccc(NC(=O)c2cc(O)cc(O)c2)cc1
- IC50 (HepG2): 36.6 µM
- inhibition [1]: 67.2%
- inhibition [2]: 27.1%

SMILES: Oc1cc(O)cc(/C=C/c2ccc(-c3ccsc3)cc2)c1
- IC50 (MDA-MB-231): 19.1 µM
- IC50 (HepG2): 31.9 µM
- inhibition [1]: 78.5%
- inhibition [2]: 63.2%

SMILES: COc1cc(CCc2ccc(NC(=O)/C=C/c3ccccc3)cc2)cc(OC)c1
- IC50 (MDA-MB-231): 21.8 µM
- inhibition [1]: 0.04%

SMILES: O=C(/C=C/c1ccccc1)Nc1ccc(O)c(/C=C/c2cc(O)cc(O)c2)c1
- IC50 (MDA-MB-231): 24.7 µM
- inhibition [1]: 98.1%
- inhibition [2]: 61.5%

SMILES: Oc1cc(O)cc(/C=C/c2ccc(O)c(-c3cccc(O)c3)c2)c1
- IC50 (MDA-MB-231): 42.3 µM
- inhibition [1]: 72.1%
- inhibition [2]: 34.5%

SMILES: Oc1cc(O)cc(/C=C/c2ccc(O)c(-c3ccsc3)c2)c1
- IC50 (MDA-MB-231): 22.6 µM
- IC50 (HepG2): 34 µM
- inhibition [1]: 86.8%
- inhibition [2]: 15.2%

SMILES: O=C(CCc1ccccc1)Nc1ccc(-c2cnc3cc(O)ccc3c2)cc1
- inhibition [1]: 9.7%

SMILES: COc1cc(/C=C/c2ccc(NC(=O)CCc3ccccc3)cc2)cc(OC)c1
- IC50 (MDA-MB-231): 7.2 µM
- IC50 (HepG2): 10.9 µM
- inhibition [1]: 0.2%

SMILES: O=C(/C=C/c1ccccc1)Nc1ccc(-c2nc3ccc(O)cc3s2)cc1
- IC50 (MDA-MB-231): 15.9 µM
- IC50 (HepG2): 5.3 µM
- inhibition [1]: 87.4%
- inhibition [2]: 43.2%

SMILES: COc1ccc2cc(-c3ccc(NC(=O)CCc4ccccc4)cc3)ccc2c1
- inhibition [1]: 0%

SMILES: Oc1ccc(-c2ccc(/C=C/c3cc(O)cc(O)c3)cc2)cc1
- IC50 (MDA-MB-231): 7.8 µM
- IC50 (HepG2): 10.6 µM
- inhibition [1]: 83.8%
- inhibition [2]: 57.1%

SMILES: O=C(/C=C/c1ccc(O)c(/C=C/c2cc(O)cc(O)c2)c1)N1CCCCC1
- IC50 (MDA-MB-231): 19.8 µM
- inhibition [1]: 91.3%
- inhibition [2]: 18.3%

SMILES: Oc1cc(O)cc(/C=C/c2cc(-c3ccccc3)ccc2O)c1
- IC50 (MDA-MB-231): 7.2 µM
- IC50 (HepG2): 9.5 µM
- inhibition [1]: 87.9%
- inhibition [2]: 81.3%

SMILES: O=[N+]([O-])c1cccc(-c2ccc(O)c(/C=C/c3cc(O)cc(O)c3)c2)c1
- IC50 (MDA-MB-231): 12.6 µM
- IC50 (HepG2): 18.6 µM
- inhibition [1]: 95.5%
- inhibition [2]: 75.4%

SMILES: Oc1cc(O)cc(/C=C/c2ccc(-c3cccc(O)c3)cc2)c1
- IC50 (MDA-MB-231): 11.3 µM
- IC50 (HepG2): 18 µM
- inhibition [1]: 82.9%
- inhibition [2]: 63.2%

SMILES: Oc1cc(O)cc(/C=C/c2ccc(-c3ccccc3)cc2)c1
- IC50 (MDA-MB-231): 10.5 µM
- IC50 (HepG2): 18 µM
- inhibition [1]: 81.2%
- inhibition [2]: 12.2%

SMILES: O=C(/C=C/c1cc(/C=C/c2cc(O)cc(O)c2)ccc1O)N1CCCCC1
- IC50 (MDA-MB-231): 16.7 µM
- IC50 (HepG2): 30 µM
- inhibition [1]: 84.5%
- inhibition [2]: 7.1%

SMILES: Oc1cc(O)cc(/C=C/c2cc(-c3cccc(O)c3)ccc2O)c1
- IC50 (MDA-MB-231): 31.2 µM
- IC50 (HepG2): 29.1 µM
- inhibition [1]: 90.7%
- inhibition [2]: 79.3%

SMILES: Oc1cc(O)cc(/C=C/c2cc(-c3ccsc3)ccc2O)c1
- IC50 (MDA-MB-231): 9.5 µM
- IC50 (HepG2): 8.2 µM
- inhibition [1]: 88.4%
- inhibition [2]: 75.2%

SMILES: CNC(=O)/C=C/c1ccc(/C=C/c2cc(O)cc(O)c2)cc1
- inhibition [1]: 29.7%
- inhibition [2]: 2.3%

SMILES: C/C=C/C(=O)Nc1cc(/C=C/c2cc(O)cc(O)c2)ccc1O
- IC50 (MDA-MB-231): 21.1 µM
- IC50 (HepG2): 32 µM
- inhibition [1]: 9.9%
- inhibition [2]: 0.2%

SMILES: COc1cc(OC)cc(C(=O)Nc2ccc(NC(=O)/C=C/c3ccccc3)cc2)c1
- inhibition [1]: 2.1%

SMILES: Oc1cc(O)cc(/C=C/c2ccc(O)c(-c3ccoc3)c2)c1
- IC50 (MDA-MB-231): 26.6 µM
- IC50 (HepG2): 36.8 µM
- inhibition [1]: 77.4%
- inhibition [2]: 12.6%

SMILES: O=C(/C=C/c1ccccc1)Nc1cc(/C=C/c2cc(O)cc(O)c2)ccc1O
- IC50 (MDA-MB-231): 13.6 µM
- IC50 (HepG2): 24.3 µM
- inhibition [1]: 94.5%
- inhibition [2]: 79.5%

SMILES: COc1cc(/C=C/c2ccc(NC(=O)/C=C/c3ccccc3)cc2)cc(OC)c1
- inhibition [1]: 15.3%
- inhibition [2]: 0.1%

SMILES: COc1ccc2nc(-c3ccc(NC(=O)CCc4ccccc4)cc3)sc2c1
- inhibition [1]: 0%

SMILES: O=C(CCc1ccccc1)Nc1ccc(CCc2cc(O)cc(O)c2)cc1
- IC50 (MDA-MB-231): 4.6 µM
- IC50 (HepG2): 2.9 µM
- inhibition [1]: 9.1%

SMILES: CNC(=O)/C=C/c1cc(/C=C/c2cc(O)cc(O)c2)ccc1O
- inhibition [1]: 45%
- inhibition [2]: 2.4%

SMILES: O=C(/C=C/c1ccccc1)Nc1ccc(-c2cnc3cc(O)ccc3c2)cc1
- inhibition [1]: 82.3%
- inhibition [2]: 55.4%

SMILES: NC(=O)/C=C/c1ccc(O)c(/C=C/c2cc(O)cc(O)c2)c1
- inhibition [1]: 76.6%
- inhibition [2]: 18.4%

SMILES: Oc1ccc(-c2ccc(O)c(/C=C/c3cc(O)cc(O)c3)c2)cc1
- IC50 (MDA-MB-231): 15.4 µM
- IC50 (HepG2): 30 µM
- inhibition [1]: 86.3%
- inhibition [2]: 75.4%

SMILES: O=C(CCc1ccccc1)Nc1ccc(/C=C/c2cc(O)cc(O)c2)cc1
- IC50 (MDA-MB-231): 33.9 µM
- IC50 (HepG2): 14.5 µM
- inhibition [1]: 62.5%
- inhibition [2]: 16.4%

SMILES: O=C(/C=C/c1ccccc1)Nc1ccc(CCc2cc(O)cc(O)c2)cc1
- IC50 (MDA-MB-231): 4.2 µM
- IC50 (HepG2): 2.8 µM
- inhibition [1]: 11.3%

SMILES: O=C(CCc1ccccc1)Nc1ccc(NC(=O)c2cc(O)cc(O)c2)cc1
- inhibition [1]: 54.5%
- inhibition [2]: 4.1%

SMILES: NC(=O)/C=C/c1ccc(/C=C/c2cc(O)cc(O)c2)cc1
- inhibition [1]: 29.8%
- inhibition [2]: 3.9%

SMILES: CCCNC(=O)/C=C/c1ccc(/C=C/c2cc(O)cc(O)c2)cc1
- IC50 (MDA-MB-231): 7.8 µM
- IC50 (HepG2): 23.7 µM
- inhibition [1]: 65.9%
- inhibition [2]: 26.8%

SMILES: CN(C)C(=O)/C=C/c1ccc(/C=C/c2cc(O)cc(O)c2)cc1
- IC50 (MDA-MB-231): 19.9 µM
- inhibition [1]: 47.8%
- inhibition [2]: 0.1%

SMILES: COc1cc(CCc2ccc(NC(=O)CCc3ccccc3)cc2)cc(OC)c1
- IC50 (MDA-MB-231): 12 µM
- IC50 (HepG2): 3.5 µM
- inhibition [1]: 1.2%

SMILES: COc1ccc2nc(-c3ccc(NC(=O)/C=C/c4ccccc4)cc3)sc2c1
- inhibition [1]: 36.7%
- inhibition [2]: 0%

SMILES: COc1ccc2cc(-c3ccc(NC(=O)/C=C/c4ccccc4)cc3)cnc2c1
- IC50 (MDA-MB-231): 39.5 µM
- IC50 (HepG2): 37.4 µM
- inhibition [1]: 0.1%

SMILES: COc1cc(OC)cc(C(=O)Nc2ccc(NC(=O)CCc3ccccc3)cc2)c1
- inhibition [1]: 3.7%

SMILES: COc1ccc2nc(-c3ccc(N)cc3)sc2c1
- IC50 (MDA-MB-231): 37.2 µM

SMILES: Oc1ccc2cc(-c3ccc(Cl)cc3Cl)cnc2c1
- IC50 (MDA-MB-231): 16.7 µM

SMILES: Oc1ccc(-c2cc(/C=C/c3cc(O)cc(O)c3)ccc2O)cc1
- IC50 (MDA-MB-231): 39.2 µM
- inhibition [1]: 64%
- inhibition [2]: 17.6%

SMILES: CCCNC(=O)/C=C/c1cc(/C=C/c2cc(O)cc(O)c2)ccc1O
- inhibition [1]: 59.6%
- inhibition [2]: 1.7%

SMILES: CNC(=O)/C=C/c1ccc(O)c(/C=C/c2cc(O)cc(O)c2)c1
- inhibition [1]: 63.5%
- inhibition [2]: 1.2%

SMILES: C/C=C/C(=O)Nc1ccc(/C=C/c2cc(O)cc(O)c2)cc1
- IC50 (MDA-MB-231): 3.8 µM
- IC50 (HepG2): 4.6 µM
- inhibition [1]: 12.5%
- inhibition [2]: 0.4%

SMILES: O=C(CCc1ccccc1)Nc1ccc(-c2nc3ccc(O)cc3s2)cc1
- IC50 (MDA-MB-231): 12.1 µM
- IC50 (HepG2): 4 µM
- inhibition [1]: 86.8%
- inhibition [2]: 7.5%

SMILES: O=[N+]([O-])c1cccc(-c2ccc(/C=C/c3cc(O)cc(O)c3)cc2)c1
- IC50 (MDA-MB-231): 11.4 µM
- IC50 (HepG2): 16.2 µM
- inhibition [1]: 68.7%
- inhibition [2]: 55.3%

SMILES: Oc1cc(O)cc(/C=C/c2ccc(-c3ccoc3)cc2)c1
- IC50 (MDA-MB-231): 27.5 µM
- IC50 (HepG2): 24.5 µM
- inhibition [1]: 66.1%
- inhibition [2]: 30.4%

SMILES: Oc1cc(O)cc(/C=C/c2ccc(O)c(-c3ccccc3)c2)c1
- IC50 (MDA-MB-231): 42.4 µM
- inhibition [1]: 87.2%
- inhibition [2]: 10.5%

SMILES: O=[N+]([O-])c1cccc(-c2cc(/C=C/c3cc(O)cc(O)c3)ccc2O)c1
- IC50 (MDA-MB-231): 33.2 µM
- inhibition [1]: 93.6%
- inhibition [2]: 97.1%

SMILES: COc1ccc2cc(-c3ccc(NC(=O)CCc4ccccc4)cc3)cnc2c1
- IC50 (MDA-MB-231): 21.1 µM
- inhibition [1]: 19.7%
- inhibition [2]: 0%

SMILES: O=C(/C=C/c1ccc(/C=C/c2cc(O)cc(O)c2)cc1)N1CCCCC1
- IC50 (MDA-MB-231): 5.7 µM
- IC50 (HepG2): 14 µM
- inhibition [1]: 71.1%
- inhibition [2]: 6.9%

SMILES: C/C=C/C(=O)Nc1ccc(O)c(/C=C/c2cc(O)cc(O)c2)c1
- inhibition [1]: 52.7%
- inhibition [2]: 0.6%

SMILES: Oc1cc(O)cc(/C=C/c2cc(-c3ccoc3)ccc2O)c1
- IC50 (MDA-MB-231): 20.1 µM
- IC50 (HepG2): 20.5 µM
- inhibition [1]: 82.1%
- inhibition [2]: 21.3%
- IC50 [3]: 59.8 µM
